This is an account of results in patent US7842703B2, “Substituted benzofused derivatives and their use as vanilloid receptor ligands” (Glenmark Pharmaceuticals S.A., priority 2005, dated 2010).

A word on the inhibition: it is the percentage by which the read-out fell short of the control. For orientation: IC50 means the concentration needed to halve the response being measured.

Structures can show the parent of a compound that is named as a salt. A value given as a limit tells only on which side of the number the result lay.

This experiment concerns the target T1, Human TRPV1 expressing CHO cells (Homo sapiens, UniProt Q8NER1).
T1 construct: expressed in transfected cells; host or cells: CHO cells under G-418 selection
In words: Screening for TRPV1 antagonist using the 45Calcium uptake assay (inhibition of capsaicin induced cellular uptake of radioactive calcium). Conditions: for inhibition at 1 µM: CHO, test compound 1 μM, capsaicin 250 nM, relative to maximum ^45Ca uptake induced by capsaicin alone; for IC50: inhibition of capsaicin (250 nM) induced ^45Ca uptake. In kind it is cell-based. As to the method:
The inhibition of TRPV1 receptor activation was followed as inhibition of capsaicin induced cellular uptake of radioactive calcium which represents calcium influx exclusively through the plasma membrane associated TRPV1 receptor.
Stock solution of capsaicin was made in ethanol and test compounds in 100% DMSO. Stock solutions were diluted to appropriate final concentrations in assay buffer keeping the final DMSO concentration between 0.1% and 0.55%.
^45Ca was used at a final concentration of 2.5 μCi/ml (^45Ca, ICN).
Assay buffer was composed of F-12 DMEM medium supplemented with 1.8 mM CaCl2 (final conc.) and 0.1% Bovine serum albumin. (BSA from SIGMA)
Wash buffer was tyrodes solution supplemented with 0.1% BSA and 1.8 mM calcium. Lysis buffer contained 50 mM Tris-HCl, pH7.5, 150 mM NaCl, 1% Triton X-100, 0.5% deoxycholate and 0.1% Sodium dodicyl sulphate (SDS, SIGMA)
Assay was carried out with some modifications the of procedure as described by Toth et. al. (See Toth A et. al., Life Sciences 73 p 487-498, 2003). Human TRPV1 expressing CHO cells were grown in F-12 DMEM (Dulbecco's modified Eagle's medium—GIBCO) medium with 10% FBS (fetal bovine serum Hyclone), 1% penicillin-streptomycin solution, 400 μg/ml of G-418. Cells were seeded 48 h prior to the assay in 96 well plates so as to get ˜50,000 cells per well on the day of experiment. Plates were incubated at 37° C. in the presence of 5% CO2. Cells were then washed twice with 200 μl of assay buffer and re-suspended in 144 μl of the same. Assay was carried out at 30° C. in total volume of 200 μl. Test compounds were added to the cells fifteen minutes before addition of capsaicin, Final concentration of capsaicin in the assay was 250 nM. After 5 minutes of agonist treatment, drug was washed out and wells rinsed with 300 μl of ice cold wash buffer 3×. The cells were lysed in 50 μl lysis buffer for 20 min. 40 μl of cell lysate was mixed with 150 μl of Microscint PS, left overnight for equilibration. Radioactivity in samples was measured as counts per minute (cpm) using Packard Biosciences Top Count. The drug/vehicle/capsaicin treated ^45Ca uptake values were normalized over basal ^45Ca value. Data was expressed as % inhibition of ^45Ca uptake by test compound with respect to maximum ^45Ca uptake induced by capsaicin alone. IC50 value was calculated from dose response curve by nonlinear regression analysis using GraphPadPRISM software.

T1 sequence (Q8NER1 whole entry): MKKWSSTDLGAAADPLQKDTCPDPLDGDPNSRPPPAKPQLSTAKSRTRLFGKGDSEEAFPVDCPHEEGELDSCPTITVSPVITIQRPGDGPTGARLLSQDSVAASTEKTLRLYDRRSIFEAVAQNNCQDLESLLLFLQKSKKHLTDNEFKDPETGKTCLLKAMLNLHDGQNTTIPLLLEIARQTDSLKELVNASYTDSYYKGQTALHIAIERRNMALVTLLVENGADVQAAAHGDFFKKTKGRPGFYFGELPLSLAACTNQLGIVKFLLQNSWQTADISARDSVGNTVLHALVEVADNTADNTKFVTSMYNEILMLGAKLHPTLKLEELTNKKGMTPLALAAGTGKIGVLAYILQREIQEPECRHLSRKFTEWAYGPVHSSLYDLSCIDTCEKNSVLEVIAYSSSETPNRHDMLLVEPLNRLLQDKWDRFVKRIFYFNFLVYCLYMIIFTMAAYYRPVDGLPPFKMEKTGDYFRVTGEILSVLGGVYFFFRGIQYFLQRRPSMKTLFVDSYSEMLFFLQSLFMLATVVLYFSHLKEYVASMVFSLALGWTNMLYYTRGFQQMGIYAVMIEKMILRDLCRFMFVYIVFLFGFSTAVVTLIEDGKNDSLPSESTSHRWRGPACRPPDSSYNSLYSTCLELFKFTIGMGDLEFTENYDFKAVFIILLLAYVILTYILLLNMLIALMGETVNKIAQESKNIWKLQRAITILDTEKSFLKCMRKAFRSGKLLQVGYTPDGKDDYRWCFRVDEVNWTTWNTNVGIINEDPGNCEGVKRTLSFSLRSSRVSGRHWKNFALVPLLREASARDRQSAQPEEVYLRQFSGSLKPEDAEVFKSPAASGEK

As to `O=C(Nc1cccc2cnccc12)NC1CC2(CCC2)Oc2ccc(F)cc21` (racemic) [Example 42, (±) 1-(3,4-Dihydro-6-fluoro-spiro[2H-1-benzopyran-2,1′-cyclobutane]-4-yl)-3-(isoquinolin-5-yl)urea], the inhibition at 1 µM is > 50% and the concentration for half-maximal inhibition (IC50) amounted to 11.9 nM.

With `O=C(Nc1cccc2cnccc12)NC1CC2(CCC2)Oc2ccc(O)cc21` (racemic) [Example 45, (±) 1-(3,4-Dihydro-6-hydroxy-spiro[2H-1-benzopyran-2,1′-cyclobutane]-4-yl)-3-(isoquinolin-5-yl)urea], the inhibition at 1 µM is < 50%.

`O=C(Nc1cccc2cnccc12)NC1CC2(CCC2)Oc2cc(O)ccc21` (racemic) [Example 46, (±) 1-(3,4-Dihydro-7-hydroxy-spiro[2H-1-benzopyran-2,1′-cyclobutane]-4-yl)-3-(isoquinolin-5-yl)urea]: the inhibition at 1 µM was < 50%.

`COc1ccc2c(c1)OC1(CCC1)CC2NC(=O)Nc1cccc2cnccc12` (racemic) [Example 47, (±) 1-(3,4-Dihydro-7-methoxy-spiro[2H-1-benzopyran-2,1′-cyclobutane]-4-yl)-3-(isoquinolin-5-yl)urea]: the inhibition at 1 µM was > 50% and the half-inhibitory concentration (IC50) came to 0.21 nM.

Take `O=C(Nc1cccc2cnccc12)NC1CC2(CCC2)Oc2c(Cl)cccc21` (racemic) [Example 49, (±) 1-(8-Chloro-3,4-dihydro-spiro[2H-1-benzopyran-2,1′-cyclobutane]-4-yl)-3-(isoquinolin-5-yl)urea]: the inhibition at 1 µM is > 50% and the IC50 stood at 29.9 nM.

On to `COc1ccc2c(c1)C(NC(=O)Nc1cccc3cnccc13)CC1(CCC1)O2` (racemic) [Example 51, (±) 1-(3,4-Dihydro-6-methoxy-spiro[2H-1-benzopyran-2,1′-cyclobutane]-4-yl)-3-(isoquinolin-5-yl)urea], for which the inhibition at 1 µM is > 50% and the IC50 amounted to 585 nM.

Take `O=C(Nc1cccc2cnccc12)NC1CC2(CCC2)Oc2ccc(OC3CCCC3)cc21` (racemic) [Example 52, (±) 1-(6-Cyclopentyloxy-3,4-dihydro-spiro[2H-1-benzopyran-2,1′-cyclobutane]-4-yl)-3-(isoquinolin-5-yl)urea]: the inhibition at 1 µM is < 50%.

For `O=C(Nc1cccc2cnccc12)NC1CC2(CCC2)Oc2cc(OC3CCCC3)ccc21` (racemic) [Example 53, (±) 1-(7-Cyclopentyloxy-3,4-dihydro-spiro[2H-1-benzopyran-2,1′-cyclobutane]-4-yl)-3-(isoquinolin-5-yl)urea], the inhibition at 1 µM was > 50% and the IC50 was found to be 15.8 nM.

In the case of `O=C(Nc1cccc2cnccc12)NC1CC2(CCC2)Oc2cc(OC(F)F)ccc21` (racemic) [Example 54, (±) 1-(7-Difluoromethoxy-3,4-dihydro-spiro[2H-1-benzopyran-2,1′-cyclobutane]-4-yl)-3-(isoquinolin-5-yl)urea. Hydrochloride], the inhibition at 1 µM is > 50% and the IC50 was determined as 2.23 nM.

For `CNS(=O)(=O)c1ccc2c(c1)C(NC(=O)Nc1cccc3cnccc13)CC1(CCC1)O2` (racemic) [Example 55, (±) 1-(3,4-Dihydro-6-methylaminosulfonyl-spiro[2H-1-benzopyran-2,1′-cyclobutane]-4-yl)-3-(isoquinolin-5-yl)urea], the inhibition at 1 µM was < 50%.

Consider `Cc1cc2c(NC(=O)NC3CC4(CCC4)Oc4cc(OC(F)F)ccc43)cccc2cn1` (racemic) [Example 56, (±) 1-(7-Difluoromethoxy-3,4-dihydro-spiro[2H-1-benzopyran-2,1′-cyclobutane]-4-yl)-3-(3-methylisoquinolin-5-yl)urea], for which the inhibition at 1 µM is > 50% and the IC50 came to 14.4 nM.

On to `Cc1cc2c(NC(=O)NC3CC4(CCC4)Oc4cc(Cl)ccc43)cccc2cn1` (racemic) [Example 57, (±) 1-(7-Chloro-3,4-dihydro-spiro[2H-1-benzopyran-2,1′-cyclobutane]-4-yl)-3-(3-methylisoquinolin-5-yl)urea], for which the inhibition at 1 µM is > 50% and the IC50 was found to be 442 nM.

For `N#Cc1cccc2c1OC1(CCC1)CC2NC(=O)Nc1cccc2cnccc12` (racemic) [Example 58, (±) 1-(8-Cyano-3,4-dihydro-spiro[2H-1-benzopyran-2,1′-cyclobutane]-4-yl)-3-(isoquinolin-5-yl)urea], the inhibition at 1 µM is < 50%.

As for `O=C(Nc1cccc2cnccc12)NC1CC2(CCC2)Oc2c(OC(F)F)cccc21` (racemic) [Example 62, (±) 1-(3,4-Dihydro-8-difluoromethoxy-spiro[2H-1-benzopyran-2,1′-cyclobutane]-4-yl)-3-(isoquinolin-5-yl)urea], the inhibition at 1 µM is < 50%.

On to `O=C(Nc1cccc2cnccc12)NC1CC2(CCC2)Oc2ccc(Cl)cc21` (racemic) [Example 63, (±) 1-(6-Chloro-3,4-dihydro-spiro[2H-1-benzopyran-2,1′-cyclobutane]-4-yl)-3-(isoquinolin-5-yl)urea], for which the inhibition at 1 µM was > 50% and the IC50 worked out at 307 nM.

For the compound `O=C(Nc1cccc2cnccc12)NC1CC2(CCC2)Oc2ccc(Br)cc21` (racemic) [Example 65, (±) 1-(6-Bromo-3,4-dihydro-spiro[2H-1-benzopyran-2,1′-cyclobutane]-4-yl)-3-(isoquinolin-5-yl)urea], the inhibition at 1 µM is > 50% and the half-maximal inhibitory concentration (IC50) turned out to be 404 nM.

For the compound `O=C(Nc1cccc2cnccc12)NC1CC2(CCC2)Oc2c(Cl)cc(Cl)cc21` (racemic) [Example 66, (±) 1-(6,8-Dichloro-3,4-dihydro-spiro[2H-1-benzopyran-2,1′-cyclobutane]-4-yl)-3-(isoquinolin-5-yl)urea], the inhibition at 1 µM is > 50% and the IC50 stood at 462 nM.

For the compound `Cc1cc2c(cc1Br)C(NC(=O)Nc1cccc3cnccc13)CC1(CCC1)O2` (racemic) [Example 67, (±) 1-(6-Bromo-3,4-dihydro-7-methylspiro[2H-1-benzopyran-2,1′-cyclobutane]-4-yl)-3-(isoquinolin-5-yl)urea], the inhibition at 1 µM is > 50% and the IC50 stood at 447 nM.

Consider `O=C(Nc1cccc2cnccc12)NC1CC2(CCC2)Oc2cc(Cl)c(Cl)cc21` (racemic) [Example 68, (±) 1-(6,7-Dichloro-3,4-dihydro-spiro[2H-1-benzopyran-2,1′-cyclobutane]-4-yl)-3-(isoquinolin-5-yl)urea], for which the inhibition at 1 µM was > 50% and the IC50 was 222 nM.

Turning to `Cc1cc2c(cc1Cl)C(NC(=O)Nc1cccc3cnccc13)CC1(CCC1)O2` (racemic) [Example 69, (±) 1-(6-Chloro-3,4-dihydro-7-methyl-spiro[2H-1-benzopyran-2,1′-cyclobutane]-4-yl)-3-(isoquinolin-5-yl)urea], the inhibition at 1 µM was > 50% and the IC50 stood at 45 nM.

Consider `O=C(Nc1ccc(Cl)c2cnccc12)NC1CC2(CCC2)Oc2ccc(Cl)cc21` (racemic) [Example 70, (±) 1-(6-Chloro-3,4-dihydro-spiro[2H-1-benzopyran-2,1′-cyclobutane]-4-yl)-3-(8-chloroisoquinolin-5-yl)urea], for which the inhibition at 1 µM is < 50%.

As to `O=C(Nc1ccc(Cl)c2cnccc12)NC1CC2(CCC2)Oc2ccc(F)cc21` (racemic) [Example 71, (±) 1-(6-Fluoro-3,4-dihydro-spiro[2H-1-benzopyran-2,1′-cyclobutane]-4-yl)-3-(8-chloroisoquinolin-5-yl)urea], the inhibition at 1 µM is > 50% and the IC50 turned out to be 591 nM.
